In paper PMC9835529, “Investigation of Novel Quinoline–Thiazole Derivatives as Antimicrobial Agents: In Vitro and In Silico Approaches” (ACS Omega, 2022):
In brackets after ≈: the same amount, converted by molar mass. Where two headings read alike, the source gives them in different places.

Assays:
[1] = test system: E. coli ATCC 25922; experiment: Antibacterial broth microdilution (CLSI M07-A9), MIC90; format: cell-based; conditions: Escherichia coli, ATCC25922
Excerpt: (§1) The broth microdilution procedure specified in the M07-A9 document of the Clinical and Laboratory Standards Institute (CLSI) was used for antibacterial study,[55] and the EDef 7.1 document published by EUCAST was used for the antifungal study.[56] For both activity studies, the detailed procedures were explained in previous studies.[57],[58]

[2] = test system: Escherichia coli ATCC 35218; experiment: as above; format: cell-based; conditions: Escherichia coli, ATCC35218; E. coli ATCC 35218
Excerpt: as §1

[3] = test system: Klebsiella pneumoniae NCTC 9633; experiment: as above; format: cell-based; conditions: NCTC9633, K. pneumoniae NCTC 9633
Excerpt: as §1

[4] = test system: Salmonella typhimurium ATCC 13311; experiment: as above; format: cell-based; conditions: Salmonella enterica; S. typhimurium ATCC 13311
Excerpt: as §1

[5] = test system: Staphylococcus aureus ATCC 6538; experiment: as above; format: cell-based; conditions: S. aureus ATCC 6538
Excerpt: as §1

[6] = test system: methicillin-resistant S. aureus (MRSA) (clinical isolate); experiment: as above; format: cell-based; conditions: Staphylococcus aureus
Excerpt: as §1

[7] = test system: Candida albicans ATCC 24433; experiment: Anticandidal broth microdilution (EUCAST EDef 7.1), MIC90; format: cell-based
Excerpt: (§2) E. coli (ATCC 35218), E. coli (ATCC 25922), S. aureus (ATCC 6538), methicillin-resistant S. aureus (MRSA) (clinical isolate), S. typhimurium (ATCC 13311), and K. pneumoniae (NCTC 9633) cells for antibacterial effect, and C. albicans (ATCC 24433), C. glabrata (ATCC 90030), C. krusei (ATCC 6258), and C. parapsilosis (ATCC 22019) for the antifungal effect of the final compounds were used to determine the MIC90 values. The broth microdilution procedure specified in the M07-A9 document of the Clinical and Laboratory Standards Institute (CLSI) was used for antibacterial study,[55] and the EDef 7.1 document published by EUCAST was used for the antifungal study.[56] For both activity studies, the detailed procedures were explained in previous studies.[57],[58]

[8] = test system: Candida krusei ATCC 6258; experiment: as above; format: cell-based
Excerpt: as §2

[9] = test system: Candida parapsilosis ATCC 22019; experiment: as above; format: cell-based
Excerpt: as §2

[10] = test system: C. glabrata ATCC 90030; experiment: as above; format: cell-based, Candida glabrata; conditions: Nakaseomyces glabratus, ATCC90030, C. glabrata ATCC 90030
Excerpt: as §2

[11] = test system: NIH/3T3 cells; experiment: Cytotoxicity on NIH/3T3 healthy cell line; format: cell-based; conditions: Mus musculus, NIH3T3, 24 h incubation
Description: NIH/3T3 cells were incubated in Dulbecco’s modified Eagle’s medium (DMEM) (Sigma-Aldrich, St. Louis, MO), added with fetal calf serum, penicillin (100 IU/mL), streptomycin ([…]), and 7.5% NaHCO3 at 37 °C in a humidified atmosphere of 95% air and 5% CO2. NIH/3T3 cells were seeded into the 96-well plates at a density of 1 × 10^4 cells. After 24 h of incubating period, the culture media were removed, and test compounds were added. After 24 h of incubation period, colorimetric measurements were performed by a microplate reader (Biotek) at 540 nm. Inhibition % at all concentrations was determined using the formula below, and the IC50 values were calculated from a dose–response curve obtained by plotting the percentage inhibition versus the log concentration with the use of Microsoft Excel 2013.

[12] = test system: Lanosterol 14α-demethylase (LMD, CYP51A1); experiment: LDM (CYP51A1) inhibition by LC-MS-MS quantification of ergosterol level; format: cell-based
Description: (§3) The activity of the target compounds was tested against Candida strains via the determination of ergosterol production.
(§4) Ergosterol level was determined using the extract of total sterols from C. albicans (and its other species) following the method described by Breivik and Owades.[63] Quantification of the ergosterol level in this extract was carried out by the recently described method.[58],[64]−[66] According to these described studies, in the current work, compounds 4b, 4e, 4f, and 4h–m were undertaken to investigate their action mechanism. Thus, the LC-MS-MS-based method that quantifies the ergosterol level was applied. […]. Ergosterol quantity in negative control samples was regarded as 100%. All concentrations were analyzed in quadruplicate, and the results were expressed as mean ± standard deviation (SD).

[13] = target: T1, Lanosterol 14α-demethylase (LMD, CYP51A1) (Candida glabrata, UniProt P50859); experiment: as above; format: cell-based; conditions: read-out: CYP51A1 Inhibition%
T1 construct: tested against Candida strains via the determination of ergosterol production; endogenous in cells; host or cells: C. glabrata (ATCC 90030)
Description: as §3, §4

[14] = Staphylococcus aureus, ATCC6538, read-out: MIC90
[15] = Candida albicans, ATCC24433, C. albicans ATCC 24433, read-out: MIC90
[16] = Pichia kudriavzevii, ATCC6258, C. krusei ATCC 6258, read-out: MIC90
[17] = Lodderomyces parapsilosis, ATCC22019, C. parapsilosis ATCC 22019, read-out: MIC90

T1 sequence (P50859 whole entry): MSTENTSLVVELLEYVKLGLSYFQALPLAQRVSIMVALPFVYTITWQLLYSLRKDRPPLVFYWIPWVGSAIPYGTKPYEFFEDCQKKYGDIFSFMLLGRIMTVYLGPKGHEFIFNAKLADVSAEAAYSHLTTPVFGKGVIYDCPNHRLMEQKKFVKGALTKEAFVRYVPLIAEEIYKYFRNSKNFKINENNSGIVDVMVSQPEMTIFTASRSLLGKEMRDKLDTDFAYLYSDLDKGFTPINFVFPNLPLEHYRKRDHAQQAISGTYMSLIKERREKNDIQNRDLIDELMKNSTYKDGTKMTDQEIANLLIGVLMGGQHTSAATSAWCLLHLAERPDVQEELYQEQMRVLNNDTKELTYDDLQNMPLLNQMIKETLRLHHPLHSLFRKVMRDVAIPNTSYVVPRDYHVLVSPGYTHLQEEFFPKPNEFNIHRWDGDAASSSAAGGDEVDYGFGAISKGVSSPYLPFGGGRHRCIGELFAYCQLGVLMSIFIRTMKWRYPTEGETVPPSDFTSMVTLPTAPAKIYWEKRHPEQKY

Row | Structure (SMILES) | MIC90 [1] | MIC90 [2] | MIC90 [3] | MIC90 [4] | MIC90 [5, 14] | MIC90 [6] | MIC90 [7, 15] | MIC90 [8, 16] | MIC90 [9, 17] | MIC90 [10] | IC50 [11] | melting point | CYP51A1 Inhibition% ([12]; C. krusei, 0.06 μg/mL) | CYP51A1 Inhibition% ([12]; C. krusei, 0.24 μg/mL) | CYP51A1 Inhibition% ([12]; C. krusei, 0.98 μg/mL) | other results
1 | COc1ccc2nc(Cl)c(/C=N/Nc3nc(-c4ccc(F)cc4)cs3)cc2c1 [4a] | > 1000 µg/mL | > 1000 µg/mL | > 1000 µg/mL | > 1000 µg/mL | > 1000 µg/mL | > 1000 µg/mL | > 1000 µg/mL | 31.2 µg/mL (≈ 75.7 µM) | 15.6 µg/mL (≈ 37.9 µM) | 1.95 µg/mL (≈ 4.72 µM) | 39.8 ± 1.45 µM | 193 to 195 °C |  |  |  | 
2 | COc1ccc2nc(Cl)c(C=NNc3nc(-c4cccc(Cl)c4)cs3)cc2c1 [4h] | > 1000 µg/mL | > 1000 µg/mL | > 1000 µg/mL | > 1000 µg/mL | > 1000 µg/mL | > 1000 µg/mL | > 1000 µg/mL | ≤ 0.06 µg/mL | 125 µg/mL (≈ 291 µM) | 31.2 µg/mL (≈ 72.8 µM) | 14.5 ± 0.57 µM | 200 to 202 °C | 45.530 ± 0.961% | 60.184 ± 1.985% | 67.651 ± 1.736% | effect on ergosterol production / LMD enzyme inhibition (in words) ([12]; C. krusei): showed their anticandidal activity via LMD enzyme inhibition
3 | OC(Cn1cncn1)(Cn1cncn1)c1ccc(F)cc1F [fluconazole, reference compound] |  |  |  |  |  |  |  |  |  |  |  |  | 43.378 ± 0.937% | 60.132 ± 2.042% | 72.523 ± 1.961% | inhibition at 0.06 µg/mL [13]: 46.3 ± 0.936%; inhibition at 0.24 µg/mL [13]: 63.7 ± 2.19%; inhibition at 0.98 µg/mL [13]: 70.1 ± 2.05%; CYP51A1 Inhibition% ([12]; C. parapsilosis, 0.06 μg/mL): 49.579 ± 1.733%; CYP51A1 Inhibition% ([12]; C. parapsilosis, 0.24 μg/mL): 61.533 ± 1.282%; CYP51A1 Inhibition% ([12]; C. parapsilosis, 0.98 μg/mL): 73.204 ± 2.031%
4 | CC(=O)N1CCN(c2ccc(OCC3COC(Cn4ccnc4)(c4ccc(Cl)cc4Cl)O3)cc2)CC1 (stereo not drawn) [ketoconazole, reference compound] |  |  |  |  |  |  | < 0.06 µg/mL | < 0.06 µg/mL | < 0.06 µg/mL | 0.24 µg/mL (≈ 0.452 µM) |  |  | 52.865 ± 1.662% | 60.630 ± 2.875% | 75.647 ± 2.749% | MIC90 ([7]; C. albicans ATCC 24433, listed as Rf): ≤0.06 µg/mL; MIC90 ([8]; C. krusei ATCC 6258, listed as Rf): ≤0.06 µg/mL; MIC90 ([9]; C. parapsilosis ATCC 22019, listed as Rf): ≤0.06 µg/mL; inhibition at 0.06 µg/mL ([13]; C. glabrata, 0.06 μg/mL): 50.4 ± 1.16%; inhibition at 0.24 µg/mL ([13]; C. glabrata, 0.24 μg/mL): 61.9 ± 1.83%; inhibition at 0.98 µg/mL ([13]; C. glabrata, 0.98 μg/mL): 72.8 ± 2.87%; CYP51A1 Inhibition% ([12]; C. parapsilosis, 0.06 μg/mL): 55.348 ± 1.091%; CYP51A1 Inhibition% ([12]; C. parapsilosis, 0.24 μg/mL): 63.419 ± 2.074%; CYP51A1 Inhibition% ([12]; C. parapsilosis, 0.98 μg/mL): 71.864 ± 2.229%
5 | COc1ccc2nc(Cl)c(/C=N/Nc3nc(-c4ccc([N+](=O)[O-])cc4)cs3)cc2c1 [4c] | > 1000 µg/mL | > 1000 µg/mL | > 1000 µg/mL | > 1000 µg/mL | > 1000 µg/mL | > 1000 µg/mL | > 1000 µg/mL | 31.2 µg/mL (≈ 71 µM) | 31.2 µg/mL (≈ 71 µM) | 62.5 µg/mL (≈ 142 µM) | 31.6 ± 0.87 µM | 245 to 253 °C |  |  |  | 
6 | O=C(N[C@H](CO)[C@H](O)c1ccc([N+](=O)[O-])cc1)C(Cl)Cl [chloramphenicol, reference compound] | 15.6 µg/mL (≈ 48.4 µM) | 31.2 µg/mL (≈ 96.7 µM) | 31.2 µg/mL (≈ 96.7 µM) | 31.2 µg/mL (≈ 96.7 µM) | ≤ 1.95 µg/mL | 31.2 µg/mL (≈ 96.7 µM) |  |  |  |  |  |  |  |  |  | MIC90 ([5]; listed as RF-1): ≤1.95 µg/mL
7 | COc1ccc2nc(Cl)c(/C=N/Nc3nc(-c4ccc5ccccc5c4)cs3)cc2c1 [4n] | > 1000 µg/mL | > 1000 µg/mL | > 1000 µg/mL | > 1000 µg/mL | 62.5 µg/mL (≈ 140 µM) | > 1000 µg/mL | 3.91 µg/mL (≈ 8.79 µM) | 1.95 µg/mL (≈ 4.38 µM) | 1.95 µg/mL (≈ 4.38 µM) | 1.95 µg/mL (≈ 4.38 µM) | > 1000 µM | 199 to 202 °C |  |  |  | 
8 | COc1ccc2nc(Cl)c(/C=N/Nc3nc(-c4ccccc4)cs3)cc2c1 [4d] | > 1000 µg/mL | > 1000 µg/mL | > 1000 µg/mL | > 1000 µg/mL | > 1000 µg/mL | > 1000 µg/mL | 1.95 µg/mL (≈ 4.94 µM) | 1.95 µg/mL (≈ 4.94 µM) | 15.6 µg/mL (≈ 39.6 µM) | 1.95 µg/mL (≈ 4.94 µM) | 1.26 ± 0.033 µM | 220 to 222 °C |  |  |  | 
